Results taken from patent US20260315452A1, “PROTEASE INHIBITORS AND USES THEREOF” (priority 2023, published 2026).
Where a name gives a salt, the structure may show the parent alone. Read-outs that look alike come from different tables or passages of the source.

Columns and labels:
SARS-CoV-2 3CLpro = SARS-CoV-2 3CLpro (Severe acute respiratory syndrome coronavirus 2, UniProt P0DTD1); experiment: biochemical; conditions: inhibition of SARS-CoV-2 3CLpro; 15 nM 3CLpro, 25 μM fluorogenic substrate, 37° C.; read-out: Inhibitory Activity (IC50)
SARS-CoV-2 = experiment: Anti-SARS-CoV-2 activity in A549 cells expressing the human ACE2 receptor (inhibition of SARS-CoV-2 replication); format: cell-based; conditions: for EC50: read-out: Antiviral Activity (EC50)
[1] = Severe acute respiratory syndrome coronavirus 2, A549-ACE2, 24 h

Structure (SMILES) | IC50 (SARS-CoV-2 3CLpro) [nM] | EC50 (SARS-CoV-2; [1]) [nM] | antiviral potency in A549 cells in comparison with compound Ref-2 (SARS-CoV-2; A549 cells, versus Ref-2 (FIG. 7)) | EC50 (SARS-CoV-2; inhibition of SARS-CoV-2 replication in mammalian cells, A549-ACE2 cells, 24 hours infection) [nM]
O=C(NC1CC1)c1cc(Br)cc([N+](=O)[O-])c1N[C@H]1CN(C(=O)c2cncc3ccccc23)CCC1(F)F [Compound 147, (S)-5-bromo-N-cyclopropyl-2-((4,4-difluoro-1-(isoquinoline-4-carbonyl)piperidin-3-yl)amino)-3-nitrobenzamide] | < 100 | < 100 |  | 
Cn1cc(NC(=O)c2cc(Br)cc([N+](=O)[O-])c2N[C@H]2CN(C(=O)c3cncc4ccccc34)CCC2(F)F)cn1 [Compound 155, (S)-5-bromo-2-((4,4-difluoro-1-(isoquinoline-4-carbonyl)piperidin-3-yl)amino)-N-(1-methyl-1H-pyrazol-4-yl)-3-nitrobenzamide] | < 100 | < 100 |  | 
CNC(=O)c1cc(Br)cc([N+](=O)[O-])c1N[C@@H]1CCCC[C@@H]1NC(=O)c1cncc2cc(F)ccc12 [Compound 8, N-((1S, 2R)-2-((4-bromo-2-(methylcarbamoyl)-6-nitrophenyl)amino)cyclohexyl)-7-fluoroisoquinoline-4-carboxamide] | < 100 | 100 to 1000 |  | 
O=C(NC1CC(F)(F)C1)c1cc(Br)cc([N+](=O)[O-])c1N1CCC2(CCN(C(=O)c3cncc4ccccc34)C2)C1 (centres unmarked) [Compound 26, 5-bromo-N-(3,3-difluorocyclobutyl)-2-(7-(isoquinoline-4-carbonyl)-2,7-diazaspiro[4.4]nonan-2-yl)-3-nitrobenzamide] | < 100 | 100 to 1000 |  | 
CC(NC(=O)c1cc(Br)cc([N+](=O)[O-])c1N[C@@H]1CCCC[C@@H]1NC(=O)c1cncc2ccccc12)C(F)(F)F (stereo partly drawn) [Compound 60, N-((1S, 2R)-2-((4-bromo-2-nitro-6-((1,1,1-trifluoropropan-2-yl)carbamoyl)phenyl)amino)cyclohexyl)isoquinoline-4-carboxamide] | 100 to 1000 | 100 to 1000 |  | 
CNC(=O)c1cc(Br)cc([N+](=O)[O-])c1N[C@@H]1CCCC[C@@H]1NC(=O)c1cncc2ccncc12 [Compound 55, N-((1S, 2R)-2-((4-bromo-2-(methylcarbamoyl)-6-nitrophenyl)amino)cyclohexyl)-2,6-naphthyridine-4-carboxamide] | 100 to 1000 | 100 to 1000 |  | 
CNC(=O)c1cc(Br)cc([N+](=O)[O-])c1NC1CCC2(C1)CN(C(=O)c1cncc3ccccc13)C2 (centres unmarked) [Compound 127, 5-bromo-2-((2-(isoquinoline-4-carbonyl)-2-azaspiro[3, 4]octan-6-yl)amino)-N-methyl-3-nitrobenzamide] | 1000 to 10000 | > 10000 |  | 
CC(C)(O)CNC(=O)c1cc(Br)cc([N+](=O)[O-])c1N[C@H]1CN(C(=O)c2cncc3ccccc23)CCC1(F)F [Compound 154, (S)-5-bromo-2-((4,4-difluoro-1-(isoquinoline-4-carbonyl)piperidin-3-yl)amino)-N-(2-hydroxy-2-methylpropyl)-3-nitrobenzamide] | < 100 | < 100 |  | 
CNC(=O)c1cc(Br)cc([N+](=O)[O-])c1NC1CC2(C1)CN(C(=O)c1cncc3ccccc13)C2 [Compound 13, 5-bromo-2-((2-(isoquinoline-4-carbonyl)-2-azaspiro[3.3]heptan-6-yl)amino)-N-methyl-3-nitrobenzamide] | ≥ 10000 | > 10000 |  | 
CNC(=O)c1cc(Br)cc([N+](=O)[O-])c1N[C@@H]1CCCN(C(=O)c2cncc3ccccc23)C1 [Compound 75, (R)-5-bromo-2-((1-(isoquinoline-4-carbonyl)piperidin-3-yl)amino)-N-methyl-3-nitrobenzamide] | < 100 | < 100 |  | 
O=C(NC1CC1)c1cc(Br)cc([N+](=O)[O-])c1N[C@@H]1CCCN(C(=O)c2cncc3ccccc23)C1 [Compound 125, (R)-5-bromo-N-cyclopropyl-2-((1-(isoquinoline-4-carbonyl)piperidin-3-yl)amino)-3-nitrobenzamide] | < 100 | < 100 |  | 
O=C(N[C@@H]1CCOC1)c1cc(Br)cc([N+](=O)[O-])c1N[C@H]1CN(C(=O)c2cncc3ccccc23)CCC1(F)F [Compound 37, 5-bromo-2-(((S)-4,4-difluoro-1-(isoquinoline-4-carbonyl)piperidin-3-yl)amino)-3-nitro-N-((R)-tetrahydrofuran-3-yl)benzamide] | < 100 | < 100 | better antiviral potency | 
CC1(NC(=O)c2cc(Br)cc([N+](=O)[O-])c2N[C@H]2CN(C(=O)c3cncc4ccccc34)CCC2(F)F)CC1 [Compound 157, (S)-5-bromo-2-((4,4-difluoro-1-(isoquinoline-4-carbonyl)piperidin-3-yl)amino)-N-(1-methylcyclopropyl)-3-nitrobenzamide] | < 100 | < 100 |  | 
CNC(=O)c1cc(Br)cc([N+](=O)[O-])c1N[C@@H]1CCCC[C@@H]1NC(=O)C[C@@H]1CCNC1=O [Compound 7, 5-bromo-N-methyl-3-nitro-2-(((1R, 2S)-2-(2-((S)-2-oxopyrrolidin-3-yl)acetamido)cyclohexyl)amino)benzamide] | 1000 to 10000 | > 10000 |  | 
CNC(=O)c1cc(Br)cc([N+](=O)[O-])c1N[C@H]1CN(C(=O)c2cncc3ccccc23)CC[C@H]1F [Compound 88, 5-bromo-2-(((3S, 4R)-4-fluoro-1-(isoquinoline-4-carbonyl)piperidin-3-yl)amino)-N-methyl-3-nitrobenzamide] | < 100 | < 100 |  | 
CNC1CN(C(=O)c2cc(Br)cc([N+](=O)[O-])c2N[C@H]2CN(C(=O)c3cncc4ccccc34)CCC2(F)F)C1 [Compound 95, (S)-(5-bromo-2-((4,4-difluoro-1-(isoquinoline-4-carbonyl)piperidin-3-yl)amino)-3-nitrophenyl)(3-(methylamino)azetidin-1-yl)methanone hydrochloride] | < 100 | < 100 |  | 
NC(=O)c1cc(Br)cc([N+](=O)[O-])c1N[C@@H]1CCCC[C@@H]1NC(=O)c1cncc2ccccc12 [Compound 53, N-((1S,2R)-2-((4-bromo-2-carbamoyl-6-nitrophenyl)amino)cyclohexyl)isoquinoline-4-carboxamide] | 100 to 1000 | 1000 to 10000 |  | 
O=C(NC1CC1)c1cc(Br)cc([N+](=O)[O-])c1N[C@@H]1COCC[C@@H]1NC(=O)c1cncc2ccccc12 [Compound 133, N-((3S, 4S)-3-((4-bromo-2-(cyclopropylcarbamoyl)-6-nitrophenyl)amino)tetrahydro-2H-pyran-4-yl)isoquinoline-4-carboxamide] | < 100 | < 100 |  | 
CNC(=O)c1cc(Br)cc([N+](=O)[O-])c1N[C@@H]1CCCC[C@@H]1NC(=O)c1cncc(C(F)(F)F)c1 [Compound 72, N-((1S, 2R)-2 ((4-bromo-2-(methylcarbamoyl)-6-nitrophenyl)amino)cyclohexyl)-5-(trifluoromethyl)nicotinamide] | 1000 to 10000 | > 10000 |  | 
CC(C)(O)CNC(=O)c1cc(Cl)cc([N+](=O)[O-])c1N[C@H]1CN(C(=O)c2cncc3ccccc23)CCC1(F)F [Compound 40, (S)-5-chloro-2-((4,4-difluoro-1-(isoquinoline-4-carbonyl)piperidin-3-yl)amino)-N-(2-hydroxy-2-methylpropyl)-3-nitrobenzamide] | < 100 | < 100 |  | 
CNC(=O)c1cc(Br)cc([N+](=O)[O-])c1N[C@@H]1CCCC[C@@H]1NC(=O)c1cncc2ccc(F)cc12 [Compound 9, N-((1S, 2R)-2-((4-bromo-2-(methylcarbamoyl)-6-nitrophenyl)amino)cyclohexyl)-6-fluoroisoquinoline-4-carboxamide] | < 100 | 100 to 1000 |  | 
CNC(=O)c1cc(Br)cc([N+](=O)[O-])c1NC(C(C)C)C1CN(C(=O)c2cncc3ccccc23)C1 (stereo in doubt) [Compound 12, (S)-5-bromo-2-((1-(1-(isoquinoline-4-carbonyl)azetidin-3-yl)-2-methylpropyl)amino)-N-methyl-3-nitrobenzamide] | < 100 | < 100 |  | 
CNC(=O)c1cc(Br)cc([N+](=O)[O-])c1N[C@@H]1CCCC[C@@H]1NC(=O)c1cccnc1 [Compound 1, N-((1S, 2R)-2-((4-bromo-2-(methylcarbamoyl)-6-nitrophenyl)amino)cyclohexyl)nicotinamide] | 100 to 1000 | 1000 to 10000 |  | 
C=CCNC(=O)c1cc(Br)cc([N+](=O)[O-])c1N[C@H]1CN(C(=O)c2cncc3ccccc23)CCC1(F)F [Compound 156, (S)-N-ally1-5-bromo-2-((4,4-difluoro-1-(isoquinoline-4-carbonyl)piperidin-3-yl)amino)-3-nitrobenzamide] | < 100 | < 100 |  | 
CNC(=O)c1cc(Cl)cc(C(F)(F)F)c1N[C@@H]1COCC[C@@H]1NC(=O)c1cncc2ccccc12 [Compound 146, N-((3S, 4S)-3-((4-chloro-2-(methylcarbamoyl)-6-(trifluoromethyl)phenyl)amino)tetrahydro-2H-pyran-4-yl)isoquinoline-4-carboxamide] | 100 to 1000 | 100 to 1000 |  | 
O=C(NC1CCOC1)c1cc(Cl)cc([N+](=O)[O-])c1N[C@H]1CN(C(=O)c2cncc3ccccc23)CCC1(F)F (stereo in doubt) [Compound 159, 5-chloro-2-(((S)-4,4-difluoro-1-(isoquinoline-4-carbonyl)piperidin-3-yl)amino)-3-nitro-N-((S)-tetrahydrofuran-3-yl)benzamide] |  |  |  | < 100
C[C@@H](NC(=O)c1cc(Br)cc([N+](=O)[O-])c1N1CCC2(CN(C(=O)c3cncc4ccccc34)CC2(F)F)C1)C(F)(F)F (stereo partly drawn) [Compound 78, 5-bromo-2-(9,9-difluoro-7-(isoquinoline-4-carbonyl)-2,7-diazaspiro[4. 4]nonan-2-yl)-3-nitro-N-((R)-1,1,1-trifluoropropan-2-yl)benzamide] | < 100 |  |  | 
